Test results: publication PMC3002932 (PLoS ONE, 2010)
Where two headings read alike, the source gives them in different places.

Columns and labels:
HIV-1 (BaL) [1] = assay type: cell-based; conditions: TZM-bl assay; HIV-1 BaL (R5); 24 hr; luciferase activity
Method: The ability of the analogs to inhibit HIV infection was determined with an assay that determines viral infectivity with an LTR-mediated luciferase reporter construct [37]. In brief, TZM-bl reporter cells are HeLa-derived JC53-BL cells that express high levels of CD4, CXCR4, and CCR5. They also contain reporter cassettes for luciferase and β-galactosidase, both driven by the HIV-1 long terminal repeat [38]). 24 hr after these reporter cells were exposed to R5 lab-adapted strains of HIV-1 (BaL) in the presence of peptides, protection was measured as % reduction in luciferase activity (relative light units) compared to cells infected with virus and peptide vehicle alone.

HIV-1 (BaL) [2] = assay: p24^gag antigen release assay in PM1 cells; assay type: cell-based; conditions: MOI = 10^−2, 0.078–5 µM, 37°C/5% CO2, p24 ELISA, day 5 represents peak infection
Method: The cells were washed and resuspended in fresh growth media containing vehicle or peptides for 7 days. Supernatants were collected at days 3, 5, and 7 post-infection, and on days 3 and 5 the cells were resuspended in 1 ml of growth medium containing the appropriate concentration of vehicle or peptide. HIV-1 infection was quantified by measuring the amount of p24^gag in the cell supernatants (Perkin Elmer p24 ELISA, Waltham, MA).

CXCR4 (HIV-1IIIB) = assay: p24^gag antigen release assay using PBMCs, CXCR4 strain; assay type: cell-based; conditions: PBMC based p24^gag antigen release assay
gp120LAV = gp120LAV (Human immunodeficiency virus type 1 group M subtype B, UniProt P03377); conditions: SPR, BIAcore CM5 chip, HBS-EP pH = 7.4; KD±SEM, average from at least 5 independent experiments
Method: (§1) Surface plasmon resonance (SPR) studies were performed on a BIAcore 3000 system (BiaCore AB, Piscataway, NJ), using BIAcore CM5 sensor chips and HBS-EP running buffer (pH = 7.4) containing 10 mM HEPES, 150 mM NaCl, 3 mM EDTA, and 0.005% polysorbate 20. Proteins/peptides were immobilized on a CM5 sensor chip using the amine coupling method. The chip was activated by mixing 400 mM N-ethyl-N-(3-dimethylaminopropyl)-carbodiimide hydrochloride and 100 mM N-hydroxysuccinimide. Residual reactive groups on the chip surface were blocked using 1.0 M ethanolamine/HCl (pH = 8.5). The flow cell-1 chamber, which served as a control, lacked immobilized protein but was treated with N-ethyl-N-(3-dimethylaminopropyl)-carbodiimide hydrochloride, N-hydroxysuccinimide, and ethanolamine/HCl. Binding signals were corrected for nonspecific binding by subtracting the flow cell-1 signal. To regenerate chip surfaces, bound ligands were removed with 10 mM HCl. Data were analyzed with BIAevaluation 4.1 software (Biacore, Piscataway, NJ).

gp41 = gp41 (Human immunodeficiency virus type 1 group M subtype B, UniProt P03375); conditions: SPR, BIAcore CM5 chip, HBS-EP pH = 7.4; KD±SEM, average from at least 5 independent experiments
Method: as §1

gp120BAL = assay: SPR binding to gp120BAL; set-up: species or system HIV-1; conditions: BIAcore CM5 chip, HBS-EP pH = 7.4, KD±SEM, average from at least 5 independent experiments
[3] = test system: gp41, gp120BAL and gp120LAV; assay: SPR binding to viral glycoproteins (gp41, gp120BAL, gp120LAV); set-up: species or system HIV-1
TZM-bl cells [4] = assay: Cell viability (CytoTox-Glo) in TZM-bl cells; assay type: cell-based; conditions: Figure 8
Method: (§2) Cell viability experiments were carried out using CytoTox-Glo™ Assay (Promega Corp., Madison, WI) and cytotoxicity was analyzed using an MTT-based cell proliferation kit (Boehringer Mannheim, Indianapolis, IN) Both tests were performed according to manufacturer's instructions. MTT is 3-(4,5-dimethylthiazol-2-yl)-2,5-diphenyltetrazolium bromide. Experiments utilizing vaginal epithelial cells (VECs) were carried out as previously described.

TZM-bl cells [5] = assay: MTT reduction in TZM-bl cells; assay type: cell-based; conditions: Figure 8
Method: as §2

[6] = FTIR spectroscopy secondary structure; assay type: physicochemical
Method: Infrared spectra were recorded at 25°C using a Bruker Vector 22™ FTIR spectrometer with a deuterated triglycine sulfate (DTGS) detector, and averaged over 256 scans at a gain of 4 with a resolution of 2 cm^−1. Peptide samples were initially freeze-dried several times from 10 mM HCl in D2O to remove any interfering counter ions and residual H2O. Solution spectra of peptides were made in deuterated 10 mM phosphate buffer, pD = 7.4 (pD = pH+0.4) and in structure promoting mixed solvent-buffer solutions (trifluoroethanol (TFE) or hexafluoroiso propanol (HFIP). Spectra were acquired using a temperature controlled, demountable liquid cell with calcium fluoride windows fitted with a 50 µm thick spacer (Harrick Scientific, Pleasantville, NY). The relative proportions of α-helix, β-turn, β-sheet, and disordered conformations of solution and multilayer IR spectra were determined by Fourier self-deconvolution for band narrowing and area calculations of component peaks of the FTIR spectra using curve-fitting software supplied by Galactic Software (GRAMS/AI, version 8.0; Thermo Electron Corp., Waltham, MA). The frequency limits for the different structures were: α-helix (1662–1645 cm^−1), β-sheet (1637–1613 and 1710–1682 cm^−1), turns (1682–1662 cm^−1), and disordered or random (1650–1637 cm^−1).

[7] = CD analysis of secondary structure; assay type: physicochemical; conditions: for disordered / turns / α-helix / β-sheet: Selcon
Method: Peptide was scanned at 20 nm per minute in a 0.01 cm path-length cell at 25°C with a sample interval of 0.2 nm. The peptide concentration was determined by UV absorbance at 280 nm. After baseline correction, spectra were expressed as the Mean Residue Ellipticity [θ]MRE. Quantitative estimates of secondary structural contributions were made with Selcon using the spectral basis set for proteins in the Olis Global Works™ software package (Olis Inc., Bogart, GA).

[8] = SDS-PAGE in non-reductive conditions; assay type: physicochemical; conditions: inconclusive
[9] = NMR studies of oligomerization (data not shown); assay type: physicochemical; conditions: water, DMSO and their mixtures; limited NMR studies (data not shown)
[10] = 0.5 mM in 10 mM phosphate buffer pH = 7.5, 25°C
[11] = 0.5 mM in HFIP:10 mM phosphate buffer pH = 7.5 (4∶6, v∶v), 25°C
[12] = 0.5 mM in TFE:10 mM phosphate buffer pH = 7.5 (4∶6, v∶v), 25°C
[13] = 0.25 mM in 10 mM phosphate buffer pH = 6.5, 25°C
[14] = 0.5 mM in 10 mM phosphate buffer pH = 6.5, 25°C
[15] = 0.5 mM in HFIP:10 mM phosphate buffer pH = 6.5 (4∶6, v∶v), 25°C
[16] = 0.5 mM in TFE:10 mM phosphate buffer pH = 6.5 (4∶6, v∶v), 25°C

Sequence of gp41 (P03375 512-856): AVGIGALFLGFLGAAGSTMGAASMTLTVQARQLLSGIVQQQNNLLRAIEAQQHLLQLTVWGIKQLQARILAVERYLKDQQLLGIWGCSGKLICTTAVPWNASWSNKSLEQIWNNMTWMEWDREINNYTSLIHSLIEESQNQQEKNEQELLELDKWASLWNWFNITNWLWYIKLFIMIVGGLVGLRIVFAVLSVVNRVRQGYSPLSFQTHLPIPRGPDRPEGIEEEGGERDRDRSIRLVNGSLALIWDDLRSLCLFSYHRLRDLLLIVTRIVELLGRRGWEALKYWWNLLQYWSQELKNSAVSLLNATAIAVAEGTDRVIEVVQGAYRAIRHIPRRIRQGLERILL

Cha-SC-Chg-R-Chg-RSGSY-Cha-DN-Chg-R-Chg-(D)Cys-CONH2 (disulfide) [GRFN-1]
EC50 (HIV-1 (BaL) [1]): 191 ± 11 nM | EC50 (HIV-1 (BaL) [2]): 547 ± 66.1 nM | antiviral activity (in words) (CXCR4 (HIV-1IIIB)): maintained their antiviral activity | Kd (gp120LAV): 2240 ± 810 nM | Kd (gp41): 3000 ± 1310 nM | Kd (gp120BAL): 1060 ± 220 nM | binding (in words) [3]: binds gp41, gp120BAL and gp120LAV in a dose dependent manner | effect on viability (TZM-bl cells [4]): no effect on viability | inhibition of cellular dehydrogenase activity (MTT reduction) (TZM-bl cells [5]): appeared to inhibit cellular dehydrogenase activity (as gauged by MTT reduction) in a dose dependent manner | disordered [6, 10]: 27.6% | turns [6, 10]: 22.4% | α-helix [6, 10]: 12.4% | β-sheet [6, 10]: 37.6% | disordered [6, 11]: 25.8% | turns [6, 11]: 17.2% | α-helix [6, 11]: 48.6% | β-sheet [6, 11]: 8.4% | disordered [6, 12]: 24.8% | turns [6, 12]: 20.3% | α-helix [6, 12]: 23.2% | β-sheet [6, 12]: 31.7% | secondary structure (in words) ([6]; TFE:buffer and HFIP:buffer): shift from β-sheet to more helical conformations | secondary structure (in words) ([6]; aqueous buffer): dominant β-sheet structure | disordered [7, 13]: 30.0% | turns [7, 13]: 21.0% | α-helix [7, 13]: 25.0% | β-sheet [7, 13]: 24.0% | disordered [7, 14]: 31.0% | turns [7, 14]: 21.0% | α-helix [7, 14]: 13.0% | β-sheet [7, 14]: 35.0% | disordered [7, 15]: 24.0% | turns [7, 15]: 16.0% | α-helix [7, 15]: 52.0% | β-sheet [7, 15]: 8.0% | disordered [7, 16]: 30.0% | turns [7, 16]: 23.0% | α-helix [7, 16]: 19.0% | β-sheet [7, 16]: 28.0% | secondary structure (in words) ([7]; 10 mM phosphate buffer, pH = 6.5, 250 µM): almost equal proportions of α-helix, β-sheet, turn and disordered conformations | secondary structure (in words) ([7]; 10 mM phosphate buffer, pH = 6.5, 500 µM vs 250 µM): β-sheet structure increases at the expense of α-helix | secondary structure (in words) ([7]; HFIP:buffer): dominant helical conformation | secondary structure (in words) ([7]; TFE:buffer): mix of α-helix, β-sheet, turns | concentration dependence of conformation ([7]; TFE:buffer and HFIP:buffer, 50 to 500 µM (data not shown)): not concentration dependent | apparent size of dimers [8]: ~4.5 kDa | oligomerization (in words) [9]: Oligomerization of GRFN-1 in various solvents (water, DMSO and their mixtures) was suggested
